The nature of series [1]: Elimination half life in CD rat at 1 mg/kg, iv administered as single bolus dose. More on the design: dose 1 mg/kg, route intravenous. The class given is ADME, organism-based. To be noted: in vivo, read-out: beta t1/2 (converted).
Series [2] in a line: Oral bioavailability in CD rat at 2 mg/kg administered as single dose. The class given is ADME, organism-based. Conditions: in vivo.
A short description of series [3]: Intrinsic clearance in human liver microsomes. In kind it is ADME, Microsome. On the technique in general: Microsomes from liver hold many membrane-bound enzymes, among them those of drug oxidation.
Series [4] can be described thus: Plasma clearance in Beagle dog at 0.030 mg/kg, iv administered as infusion over 1 hr. The class given is ADME, organism-based, Canis lupus familiaris. On the set-up: dose 0.03 mg/kg, route intravenous. To be noted: 0.03 mg/kg.
Series [5] in a line: Plasma clearance in CD rat at 1 mg/kg, iv administered as single bolus dose. The class given is ADME, organism-based. On the set-up: dose 1 mg/kg, route intravenous.
Series [6] can be described thus: Volume of distribution in Beagle dog at 0.030 mg/kg, iv administered as infusion over 1 hr. In kind it is ADME, organism-based, Canis lupus familiaris. On the set-up: dose 0.03 mg/kg, route intravenous. Conditions: in vivo, 0.03 mg/kg.
Series [7] is described as follows: Intrinsic clearance in dog liver microsomes. In kind it is ADME, Canis lupus familiaris, Microsome.
Series [8] can be described thus: Dissociation constant, pKa of the compound. The class given is physicochemical.
A short description of series [9]: Intrinsic clearance in rat hepatocytes assessed per 10^6 cells. In kind it is ADME, cell-based, Liver, Hepatocyte.
The nature of series [10]: Cmax in CD rat at 2 mg/kg, po administered as single dose. The class given is ADME, organism-based. More on the design: dose 2 mg/kg, route oral. To be noted: in vivo.
A short description of series [11]: Intrinsic clearance in rat liver microsomes. In kind it is ADME, Microsome.
Series [12] can be described thus: Elimination half life in Beagle dog at 0.030 mg/kg, iv administered as single infusion over 1 hr. In kind it is ADME, organism-based, Canis lupus familiaris. Conditions: in vivo, 0.03 mg/kg, read-out: beta t1/2 (converted). More on the design: dose 0.03 mg/kg, route intravenous.
The nature of series [13]: Drug excretion in CD rat urine at 1 mg/kg, iv administered as single bolus dose. In kind it is ADME, organism-based. On the set-up: dose 1 mg/kg, route intravenous.
Series [14] is described as follows: Tmax in CD rat at 2 mg/kg, po administered as single dose. The class given is ADME, organism-based. To be noted: in vivo. More on the design: dose 2 mg/kg, route oral.
For series [15], the system named is Rattus norvegicus. Kind of series: AUC (0 to infinity) in CD rat at 2 mg/kg, po administered as single dose. In kind it is ADME, organism-based, Plasma. On the set-up: time infinity, dose 2 mg/kg, route oral. To be noted: in vivo.
A short description of series [16]: Volume of distribution in CD rat at 1 mg/kg, iv administered as single bolus dose. The class given is ADME, organism-based. More on the design: dose 1 mg/kg, route intravenous. Conditions: in vivo.
The nature of series [17]: Intrinsic clearance in human hepatocytes assessed per 10^6 cells. In kind it is ADME, cell-based, Liver, Hepatocyte.
Series [18] can be described thus: Intrinsic clearance in dog hepatocytes assessed per 10^6 cells. In kind it is ADME, cell-based, Canis lupus familiaris, Liver, Hepatocyte.
In series [19] the test system is Canis familiaris. Nature of the series: Increase of peak urethral pressure in iv dosed anesthetized dog stress urinary incontinence model at 20 to 45 nM of free plasma concentration relative to control. The class given is functional, Canis lupus familiaris, Urethra.

By bioavailability is commonly meant the share of a dose that reaches the circulation, judged against a reference dose that is usually intravenous. High values mean good availability, low ones poor availability. A word on the microsomal CLint: it is the rate of metabolic loss divided by the concentration. A lower microsomal CLint goes with slow turnover. One may read the clearance as the volume of plasma or blood freed of the substance per unit of time. A lower clearance goes with inefficient removal. One may read the Vd as the apparent volume that relates the amount in the body to the concentration in plasma or blood. By pKa is commonly meant the pH at which an ionisable group is half protonated. Low readings indicate a group that gives up its proton readily, high ones a group that holds its proton tightly. A word on the hepatocyte CLint: it is a measure of how fast metabolising enzymes remove a compound, apart from limits set by blood flow. Broadly, the Cmax is the maximum level reached in the sampled fluid or tissue. The term Tmax denotes the time from dosing to the highest level. In general, AUC refers to concentration integrated over time. In the case of `c1ccc(Cc2ncc3c(n2)CCNCC3)cc1`, the half-life in series [1] is 2.8 h; in series [12] it was 3.4 h. The same compound had a bioavailability in series [2] of 44%. For the same compound, the microsomal CLint in series [3] is less than 7 µL/min/mg; in series [7] it was less than 7 µL/min/mg; in [11] it was 28 µL/min/mg. Also, the clearance in [4] turned out to be 11.6 mL/min/kg; in [5], 51 mL/min/kg. For the same compound, the Vd turned out to be 3.5 L/kg in series [6] and 8.9 L/kg in series [16]. The pKa in [8] turned out to be 8.5. Further, the intrinsic metabolic clearance (hepatocyte CLint) was 15 µL/min/1e6 cells in [9], less than 5 µL/min/1e6 cells in series [17] and less than 5 µL/min/1e6 cells in series [18]. The same compound returned a Cmax in [10] of 49 ng/mL. Besides, in series [13], the dose excreted came out at 10%. For the same compound, in [14], the Tmax came to 0.25 h. In series [15], the AUC stood at 290 ng·h/mL. For the same compound, the Activity in series [19] is on record as 20%.
